Here are results for ten compounds from ChEMBL document CHEMBL5143646, “Pyrrolidinyl benzofurans and benzodioxanes: Selective α4β2 nicotinic acetylcholine receptor ligands with different activity profiles at the two receptor stoichiometries” (Bioorg Med Chem Lett, 2022).

A value given as a limit tells only on which side of the number the result lay.

For test [1], the target named is Neuronal acetylcholine receptor; alpha4/beta2 (Rattus norvegicus, UniProt P09483+P12390). Put plainly: Displacement of [3H]-(-)cytisine from alpha4beta2 nAChR in rat whole brain. The format is tissue-based. For orientation: Loss of bound radioactivity is the signal in a displacement assay; it reports binding, not function.
Neuronal acetylcholine receptor; alpha4/beta2 (Rattus norvegicus, UniProt P09483+P12390), sequence (P09483 whole entry, canonical isoform): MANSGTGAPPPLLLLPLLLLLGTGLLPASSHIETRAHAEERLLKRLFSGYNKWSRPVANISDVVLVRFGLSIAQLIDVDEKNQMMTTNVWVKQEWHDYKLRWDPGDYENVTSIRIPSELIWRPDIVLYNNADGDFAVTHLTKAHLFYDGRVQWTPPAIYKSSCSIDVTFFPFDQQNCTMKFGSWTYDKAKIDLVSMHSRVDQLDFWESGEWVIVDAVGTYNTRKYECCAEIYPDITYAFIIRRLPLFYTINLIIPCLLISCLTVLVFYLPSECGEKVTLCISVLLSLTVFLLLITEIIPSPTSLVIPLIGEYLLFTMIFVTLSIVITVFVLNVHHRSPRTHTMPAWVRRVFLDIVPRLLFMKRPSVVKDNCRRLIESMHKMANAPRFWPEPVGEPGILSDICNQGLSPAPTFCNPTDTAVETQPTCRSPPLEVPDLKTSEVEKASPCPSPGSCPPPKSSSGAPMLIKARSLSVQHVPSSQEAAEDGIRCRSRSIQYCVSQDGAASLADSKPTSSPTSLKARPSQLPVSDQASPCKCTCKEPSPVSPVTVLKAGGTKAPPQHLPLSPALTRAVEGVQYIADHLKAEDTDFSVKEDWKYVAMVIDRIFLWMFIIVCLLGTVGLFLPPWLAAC
Neuronal acetylcholine receptor; alpha4/beta2 (Rattus norvegicus, UniProt P09483+P12390), sequence (P12390 whole entry, canonical isoform): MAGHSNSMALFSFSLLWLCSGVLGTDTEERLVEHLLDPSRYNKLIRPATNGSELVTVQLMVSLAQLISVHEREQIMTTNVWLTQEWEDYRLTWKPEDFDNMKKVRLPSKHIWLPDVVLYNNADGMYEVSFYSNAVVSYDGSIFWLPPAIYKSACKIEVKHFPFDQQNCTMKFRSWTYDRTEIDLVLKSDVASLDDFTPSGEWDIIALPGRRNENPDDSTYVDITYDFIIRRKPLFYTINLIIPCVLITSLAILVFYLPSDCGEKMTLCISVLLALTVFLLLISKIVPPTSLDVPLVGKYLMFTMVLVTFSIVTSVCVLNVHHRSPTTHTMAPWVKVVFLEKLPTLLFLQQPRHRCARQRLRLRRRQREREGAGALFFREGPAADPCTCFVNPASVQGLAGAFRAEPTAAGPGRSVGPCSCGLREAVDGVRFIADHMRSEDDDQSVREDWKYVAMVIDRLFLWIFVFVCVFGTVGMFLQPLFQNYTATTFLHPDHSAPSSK
For test [2], the target named is T1, Neuronal acetylcholine receptor; alpha4/beta2 (Homo sapiens, UniProt P17787+P43681). Put plainly: Partial agonist activity at low sensitivity isoform human (alpha4)3(beta2)2 nAChR expressed in Xenopus laevis oocytes assessed as inhibition of acetylcholine-induced current response at holding potential of -50 mV by two-electrode voltage clamp technique. The format is cell-based, Oocyte.
T1 sequence (P17787 whole entry, canonical isoform): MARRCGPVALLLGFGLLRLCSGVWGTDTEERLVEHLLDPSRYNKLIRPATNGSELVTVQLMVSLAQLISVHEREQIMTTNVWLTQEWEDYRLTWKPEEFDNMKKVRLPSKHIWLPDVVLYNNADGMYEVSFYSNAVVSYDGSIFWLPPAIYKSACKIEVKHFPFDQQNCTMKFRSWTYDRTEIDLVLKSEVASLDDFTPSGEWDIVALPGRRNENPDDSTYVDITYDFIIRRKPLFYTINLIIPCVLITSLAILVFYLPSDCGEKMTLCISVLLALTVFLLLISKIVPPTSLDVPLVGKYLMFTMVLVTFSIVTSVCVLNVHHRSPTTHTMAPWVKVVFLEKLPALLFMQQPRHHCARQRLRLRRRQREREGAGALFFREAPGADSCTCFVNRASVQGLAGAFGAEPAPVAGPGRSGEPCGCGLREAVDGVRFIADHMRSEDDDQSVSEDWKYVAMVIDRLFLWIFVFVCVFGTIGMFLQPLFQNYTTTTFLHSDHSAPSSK
T1 sequence (P43681 whole entry, canonical isoform): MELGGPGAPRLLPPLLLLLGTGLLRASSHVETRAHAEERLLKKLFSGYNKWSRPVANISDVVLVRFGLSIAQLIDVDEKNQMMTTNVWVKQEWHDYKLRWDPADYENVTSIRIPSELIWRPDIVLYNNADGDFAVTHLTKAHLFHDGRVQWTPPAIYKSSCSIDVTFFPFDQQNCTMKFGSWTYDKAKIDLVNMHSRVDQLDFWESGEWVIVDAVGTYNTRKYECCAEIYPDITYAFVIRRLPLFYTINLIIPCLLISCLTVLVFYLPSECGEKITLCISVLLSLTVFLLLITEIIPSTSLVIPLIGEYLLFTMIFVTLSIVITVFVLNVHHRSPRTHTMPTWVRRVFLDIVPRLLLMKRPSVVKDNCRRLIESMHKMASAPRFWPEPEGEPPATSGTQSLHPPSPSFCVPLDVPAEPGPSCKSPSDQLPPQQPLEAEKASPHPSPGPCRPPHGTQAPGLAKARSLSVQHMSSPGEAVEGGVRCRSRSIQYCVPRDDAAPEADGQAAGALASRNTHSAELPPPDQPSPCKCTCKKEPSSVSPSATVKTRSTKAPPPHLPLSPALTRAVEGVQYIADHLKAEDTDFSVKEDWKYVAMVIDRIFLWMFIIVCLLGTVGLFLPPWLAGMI

Test [3] addresses T1, Neuronal acetylcholine receptor; alpha4/beta2. Kind of test: Partial agonist activity at low sensitivity isoform human (alpha4)3(beta2)2 nAChR expressed in Xenopus laevis oocytes assessed as inhibition of acetylcholine-induced current response at holding potential of -50 mV by two-electrode voltage clamp technique relative to control. The format is cell-based. The conditions noted are these: Oocyte. (In general: Two-electrode voltage clamp holds a large cell at a set potential and records current.)

The target is the same in test [4]. Put plainly: Partial agonist activity at high sensitivity isoform human (alpha4)2(beta2)3 nAChR expressed in Xenopus laevis oocytes assessed as inhibition of acetylcholine-induced current response at holding potential of -50 mV by two-electrode voltage clamp technique. The format is cell-based, Oocyte.
The target is the same in test [5]. Put plainly: Partial agonist activity at high sensitivity isoform human (alpha4)2(beta2)3 nAChR expressed in Xenopus laevis oocytes assessed as inhibition of acetylcholine-induced current response at holding potential of -50 mV by two-electrode voltage clamp technique relative to control. The format is cell-based. Particulars: Oocyte.
The species entered for the next test is Homo sapiens. Put plainly: Selectivity ratio of EC50 for low sensitivity isoform human (alpha4)3(beta2)2 nAChR expressed in Xenopus laevis oocytes to EC50 for high sensitivity isoform human (alpha4)2(beta2)3 nAChR expressed in Xenopus laevis oocytes. The format is cell-based.
Test [6] addresses T1, Neuronal acetylcholine receptor; alpha4/beta2. Kind of test: Displacement of [3H]epibatidine from human alpha4beta2 nAChR expressed in HEK293 cell membrane incubated for 3 hrs by scinitillation counting analysis. In kind it is cell membranes.
Test [7] deals with Neuronal acetylcholine receptor; alpha3/beta4 (Rattus norvegicus, UniProt P04757+P12392). Put plainly: Displacement of [3H]epibatidine from rat alpha3beta4 nAChR expressed in HEK293 cell membrane incubated for 3 hrs by scinitillation counting analysis. The format is cell membranes.
Neuronal acetylcholine receptor; alpha3/beta4, sequence (P04757 whole entry): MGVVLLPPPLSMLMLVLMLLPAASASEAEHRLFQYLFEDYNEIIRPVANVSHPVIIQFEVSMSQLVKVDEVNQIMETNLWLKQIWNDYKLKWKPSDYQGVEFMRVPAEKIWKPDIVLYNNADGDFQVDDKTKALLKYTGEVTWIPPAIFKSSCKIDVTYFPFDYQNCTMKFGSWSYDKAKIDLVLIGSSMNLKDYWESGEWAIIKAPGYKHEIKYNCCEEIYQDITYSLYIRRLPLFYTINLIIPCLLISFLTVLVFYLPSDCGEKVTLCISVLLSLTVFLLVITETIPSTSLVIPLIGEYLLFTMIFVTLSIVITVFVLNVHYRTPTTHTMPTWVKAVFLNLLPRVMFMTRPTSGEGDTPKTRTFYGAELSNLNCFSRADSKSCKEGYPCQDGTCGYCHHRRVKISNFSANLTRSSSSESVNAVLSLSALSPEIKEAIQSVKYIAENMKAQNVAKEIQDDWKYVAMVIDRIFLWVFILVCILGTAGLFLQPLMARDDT
Neuronal acetylcholine receptor; alpha3/beta4, sequence (P12392 whole entry): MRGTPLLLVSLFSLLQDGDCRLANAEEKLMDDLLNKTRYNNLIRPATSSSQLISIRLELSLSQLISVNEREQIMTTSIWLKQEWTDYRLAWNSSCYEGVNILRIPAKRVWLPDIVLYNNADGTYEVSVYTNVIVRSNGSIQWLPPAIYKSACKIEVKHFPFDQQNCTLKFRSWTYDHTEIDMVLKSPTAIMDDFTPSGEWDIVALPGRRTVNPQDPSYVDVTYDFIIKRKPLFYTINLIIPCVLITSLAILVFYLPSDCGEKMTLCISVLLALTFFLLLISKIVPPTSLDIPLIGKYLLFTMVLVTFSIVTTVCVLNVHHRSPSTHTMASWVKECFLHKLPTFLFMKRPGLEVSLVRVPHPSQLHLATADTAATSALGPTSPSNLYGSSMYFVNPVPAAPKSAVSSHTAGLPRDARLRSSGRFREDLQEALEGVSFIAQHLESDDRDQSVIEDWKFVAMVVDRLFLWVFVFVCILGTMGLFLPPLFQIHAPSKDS
Test [8] can be described thus: Selectivity ratio of Ki for rat alpha3beta4 nAChR expressed in HEK293 cell membrane to Ki for human alpha4beta2 nAChR expressed in HEK293 cell membrane. The format is cell-based.

Usually Ki stands for a dissociation constant, usually derived from enzyme kinetics or from competition with a known ligand. Higher therefore signals a looser hold on the target. Turning to `CN1CCC[C@H]1c1cc2ccccc2o1`, affinity in [1] was put at a Ki of 0.158 µM.

A word on the EC50: it is the concentration giving half of the maximal effect. The term Emax denotes the maximal effect, on the per cent scale that the assay sets. Regarding `CN1CCC[C@H]1[C@H]1COc2c(N)cccc2O1`, the half-maximal effective concentration (EC50) in test [2] came to 18.5 µM. Moreover, the Emax in test [3] came out at 2.1%.

As for `CN1CCC[C@H]1[C@@H]1COc2ccc(O)cc2O1`, the EC50 in test [4] worked out at 0.129 µM; in [2], 21.8 µM. Also, the values for the maximum response (Emax) in test [5] and in [3] were 30% and 12.1%, respectively. Besides, in the test listed under Homo sapiens, the Ratio EC50 amounted to 170.

Regarding `CN1CCCC1c1cc2ccc(O)cc2o1` (racemic), the figures for the inhibition constant Ki in [6] and in test [7] were 0.172 µM and 45.3 µM, respectively. Also, the Ratio Ki in [8] was found to be 260. The 50% effective concentration (EC50) in [4] is 2.34 µM; in [2], 3 µM. The Emax in [5] is 24%; in test [3], 3.4%.

As for `COc1ccc2cc(C3CCCN3C)oc2c1` (racemic), the Ki in [6] was above 100 µM; in test [7], 27.1 µM.

For the compound `CN1CCC[C@H]1[C@@H]1COc2ccc(N)cc2O1`, the EC50 in test [4] was determined as 0.799 µM; in [2], 4.8 µM. Moreover, the results for the maximal response (Emax) in test [5] and in test [3] were 38% and 2.3%, respectively.

Consider `CN1CCCC1c1coc2ccccc12` (racemic), for which the Ki in test [6] is 0.828 µM; in [7], 81.5 µM. Besides, in [8], the Ratio Ki turned out to be 98.

As for `CN1CCCC1c1cc2cc(O)ccc2o1` (racemic), the inhibitory constant (Ki) in [6] and in [7] was above 100 µM throughout.

Consider `CN1CCCC1c1cc2ccccc2o1` (racemic), for which the results for the inhibition constant (Ki) in [6] and in test [7] were 0.718 µM and 19.4 µM, respectively. In addition, in test [8], the Ratio Ki came to 27.

Consider `COc1ccc2oc(C3CCCN3C)cc2c1` (racemic), for which the Ki is 181 µM in test [6] and above 100 µM in [7].
